The structures appear in SMILES notation.

In test [1] the test system is MC38 colorectal cancer cells. The test can be described thus: MC38 subcutaneous tumor model in C57BL/6 mice, Embodiment 2. To be noted: for Tumor volume: CBD 100 mg/kg, PAR 10 mg/kg, vitamin E 50 mg/kg, thymosin 2 mg/kg. It counts as in vivo. On the procedure: • 1. MC38 colorectal cancer cells were inoculated into 6-week-old female C57BL/6 mice (1×10^6 cells/mouse) to establish a subcutaneous tumor model. After the tumor volume reached 50 mm^3, the mice were grouped and administered according to the following pharmaceutical combinations: (1) control group (no administration), (2) anti-PD-1 ([…]/time) group, (3) anti-CTLA4 ([…]/time) group, (4) CBD (100 mg/kg) group, (5) CBD (100 mg/kg)+anti-CTLA4 ([…]/time) group, (6) PAR (10 mg/kg) group, (7) PAR (10 mg/kg)+anti-CTLA4 ([…]) group, (8) CBD (100 mg/kg)+PAR (10 mg/kg) group, (9) vitamin E(a-tocopherol) (50 mg/kg)+thymosin (2 mg/kg) group, (10) CBD (100 mg/kg)+vitamin E(α-tocopherol) (50 mg/kg)+thymosin (2 mg/kg) group, (11) PAR (10 mg/kg)+vitamin E(α-tocopherol) (50 mg/kg)+thymosin (2 mg/kg), (12) PAR (10 mg/kg)+CBD (100 mg/kg)+vitamin E(α-tocopherol) (50 mg/kg)+thymosin (2 mg/kg) group, (13) CBD (100 mg/kg)+vitamin E(α-tocopherol) (50 mg/kg)+thymosin (2 mg/kg)+anti-CTLA4 ([…]/time) group, (14) PAR (10 mg/kg)+vitamin E(α-tocopherol) (50 mg/kg)+thymosin (2 mg/kg)+anti-CTLA4 ([…]) group, and (15) CBD (100 mg/kg)+PAR (10 mg/kg)+vitamin E(α-tocopherol) (50 mg/kg)+thymosin (2 mg/kg)+anti-CTLA4 ([…]/time) group. The tumor weight and volume, and body weight of the mice were monitored once every 2 days. The tumor volume was calculated as follows: tumor volume (mm^3)=0.5×(length)x(width)^2. The mice were sacrificed 14 days after drug administration, and the tumors were dissected.
The dissolving mode of the pharmaceutical composition was as follows: the pharmaceutical composition was dissolved in 10% DMSO+corn oil, the mice were gavaged with the pharmaceutical composition at 100 pl/mouse, and the mice in the control group were injected with the same volume of the solvent. • 2. MC38 colorectal cancer cells were inoculated into 6-week-old female nude mice (1×10^6 cells/mouse) to establish a subcutaneous tumor model. After the tumor volume reached 50 mm^3, the mice were grouped and administered according to the following pharmaceutical combinations: (1) control group, (2) CBD (100 mg/kg)+vitamin E(α-tocopherol) (50 mg/kg)+thymosin (2 mg/kg) group, (3) PAR (10 mg/kg)+vitamin E(α-tocopherol) (50 mg/kg)+thymosin (2 mg/kg) group, and (4) PAR (10 mg/kg)+CBD (100 mg/kg)+vitamin E(α-tocopherol) (50 mg/kg)+thymosin (2 mg/kg) group. The tumor weight and volume, and the body weight of the mice were monitored once every 2 days. The tumor volume was calculated as follows: tumor volume (mm^3)=0.5×(length)x(width)^2. The mice were sacrificed 14 days after drug administration, and the tumors were dissected. (II) Experimental Results 1.

Test [2] has as its system MC38 colon cancer cells. The test can be described thus: MC38 subcutaneous tumor model, curcumin-administrated groups, Embodiment 4. In kind it is in vivo, C57BL/6 mice. To be noted: CBD 100 mg/kg, curcumin 50 mg/kg, piperine 1 mg/kg, vitamin E 50 mg/kg, thymosin 2 mg/kg; vs control. On the procedure: MC38 colon cancer cells were inoculated into 6-week-old female C57BL/6 mice (1×10^6 cells/mouse) to establish a subcutaneous tumor model. After the tumor volume reached 50 mm^3, the mice in the artemisinin-administered groups were grouped and administered with the following pharmaceutical combinations: (1) control group, (2) CBD (100 mg/kg)+vitamin E(α-tocopherol) (50 mg/kg)+thymosin (2 mg/kg) group, and (3) CBD (100 mg/kg)+artemisinin (20 mg/kg)+vitamin E(α-tocopherol) (50 mg/kg)+thymosin (2 mg/kg). The mice in curcumin-administrated group were grouped and administered with the following pharmaceutical combinations: (1) control group, (2) CBD (100 mg/kg) group, (3) curcumin (50 mg/kg)+piperine (1 mg/kg) group, (4) CBD (100 mg/kg)+curcumin (50 mg/kg)+piperine group (1 mg/kg), and (5) CBD (100 mg/kg)+curcumin (50 mg/kg)+piperine (1 mg/kg)+vitamin E(α-tocopherol) (50 mg/kg)+thymosin (2 mg/kg).
The tumor growth volume of the mice was monitored once every 2 days. The tumor volume was calculated as follows: tumor volume (mm^3)=0.5×(length)x(width)^2. The mice were sacrificed 14 days after drug administration, and the tumors were dissected. […]

As for `C=C(C)[C@@H]1CCC(C)=C[C@H]1c1c(O)cc(CCCCC)cc1O` [CBD, cannabidiol], the Tumor volume in test [1] (Day 0) turned out to be 0 mm^3; in test [1] (Day 2) it was 54.99 mm^3; in test [1] (Day 4) it was 70.96 mm^3; in test [1] (Day 6) it was 87.63 mm^3; in test [1] (Day 8), 178.79 mm^3; in test [1] (Day 10), 279.84 mm^3. In addition, the Tumor volume amounted to 399.70 mm^3 in test [1] (Day 12), 493.09 mm^3 in test [1] (Day 14) and 600.09 mm^3 in test [1] (Day 16). Moreover, the “therapeutic / tumor inhibition effect in words” value in test [1] (normal mice, Embodiment 2, comparison between groups) was “equivalent therapeutic effects”. Moreover, in test [2], the “tumor growth / anti-tumor effect in words” value was “inhibited to a certain degree”.

For the origin of these results see patent publication US12599596B2, “Anti-tumor pharmaceutical composition based on immune checkpoint blockade and use thereof” (Shanghai Hui Tian Jin Ze Biotech Co., Ltd., priority 2023, dated 2026).
